From US10047083B2, “Dihydropyrimidinoisoquinolinones and pharmaceutical compositions thereof for the treatment of inflammatory disorders” (GALAPAGOS NV, priority 2011, dated 2018)

What was measured:
[1] = system: human neutrophils; experiment: Human neutrophil migration assay (embelin-induced); format: cell-based; conditions: neutrophils from human buffy coat, 30 min compound pre-incubation, migration towards embelin at EC80 for 1 h, ATPlite readout, read-out: human neutrophil migration inhibition (Neutrophils)
Procedure: 2. Cellular Assays 2.1. Human Neutrophil Migration Assay
The effect of agonists or antagonists for GPR84 can therefore be assayed in a neutrophil migration test. In the neutrophil migration assay, neutrophils, freshly isolated from buffy coats from human volunteers, are treated with a compound for 30 minutes. Subsequently, the neutrophils are transferred to the upper wells of a Corning HTS transwell 96 permeable support system, of which the lower wells are filled with a embelin solution at EC80 (concentration which gives 80% of the activity of GPR84). After 1 h of incubation, migration of the neutrophils towards embelin in the lower compartment can be quantified by measuring the ATP-content of the lower wells using the ATPlite luminescence ATP detection assay system (Perkin Elmer, Cat. No.: 436110).
A human buffy coat is diluted with an equal volume of ice cold DPBS. 20 mL of the diluted buffy coat is gently mixed with 4 mL of ACD buffer (140 mM citric acid, 200 mM sodium citrate and 220 mM dextrose). Then, 12 mL of the 6% dextran/0.9% NaCl solution (15 g dextran T2000 and 2.25 g NaCl dissolved in 250 mL H2O) is added to the mixture and the samples are inverted gently up to 20 times. The total volume was transferred to a new recipient and incubated at room temperature for 1 h for complete separation of the two phases to occur. The yellowish supernatant is then transferred to a clean centrifugation tube and centrifuged for 12 minutes at 1300 rpm and 4° C. After centrifugation, the supernatant is discarded and the remaining cell pellet is rapidly resuspended in 12 mL of ice-cold H2O for red blood cell lysis to occur. After 20 seconds, 4 mL of ice-cold 0.6 M KCl is added. Samples are mixed carefully and centrifuged for 6 minutes at 1300 rpm, 4° C. The supernatant is discarded and the red blood cell lysis procedure is repeated one more time. Subsequently, the cell pellet is resuspended in 4 mL of DPBS and layered over 5 mL of Lymphoprep (Nycomed Pharma, Cat. No.: 1114545) in a 15 mL centrifuge tube. After centrifugation for 12 min at 1300 rpm, 4° C., the supernatant is removed and the cell pellet, containing the neutrophils, is resuspended in 25 mL chemotaxis buffer (RPMI 1640 medium, supplemented with 10 mM HEPES; freshly made for each experiment)
A cell suspension of 8.9×10^6 cells per milliliter is prepared. 20 μL of compound solution in chemotaxis buffer is added to 180 μL cell suspension. The mixture is incubated at 37° C. for 30 minutes with intermediate resuspension of the cells after 15 minutes. Following this, 70 μL cell suspension is transferred to the upper compartment of a Corning HTS transwell 96 permeable support system with 5.0 μm pore size polycarbonate membrane (Corning, Cat. No.: 3387). The receiver well of the transwell system is then filled with 200 μL chemotaxis buffer containing compound and chemotactic agent (embelin). After incubation at 37° C. in 5% CO2 for 1 h, the upper plate of the transwell system is removed and the cell suspension in the receiver plate is transferred to a 96-well V-bottom plate. 50 μL of DPBS is added to the receiver plate to prevent remaining cells from drying out. The V-bottom plate is centrifuged for 6 minutes at 1500 rpm. The supernatant is removed and the cells are resuspended in 50 μL DPBS. The cells are then transferred back to the receiver plate of the transwell system. After this, 100 μL ATPlite solution (Perkin Elmer, Cat. No: 436110) was added to the cells. The plate is incubated for 10 minutes in the dark, while shaking. […] of cell lysate is then transferred to a white 96-well plate and luminescence is measured. The detected luminescent signal is considered as linearely related to the number of cells having migrated from the upper well to the receiver well.

[2] = target: T1, GPR84 (Homo sapiens, UniProt Q9NQS5); experiment: GTPγS binding assay (GPR84); format: biochemical; conditions: membranes from stable cell line over expressing GPR84; 3,3′ di indolylmethane at EC80
T1 construct: expressed in transfected cells; membranes used
In short: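 Membranes (20 μg/well) from a stable GPR84-overexpressing line, pre-incubated with 0.1 μM GDP for 15 min at 4° C, mixed with 0.1 nM [35S]GTPγS and WGA SpA beads in 20 mM HEPES pH 7.4, 5 mM MgCl2, 250 mM NaCl, 0.05% BSA, 75 ug/mL saponin; 90 min at room temperature, then scintillation counting.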

T1 sequence (Q9NQS5 whole entry): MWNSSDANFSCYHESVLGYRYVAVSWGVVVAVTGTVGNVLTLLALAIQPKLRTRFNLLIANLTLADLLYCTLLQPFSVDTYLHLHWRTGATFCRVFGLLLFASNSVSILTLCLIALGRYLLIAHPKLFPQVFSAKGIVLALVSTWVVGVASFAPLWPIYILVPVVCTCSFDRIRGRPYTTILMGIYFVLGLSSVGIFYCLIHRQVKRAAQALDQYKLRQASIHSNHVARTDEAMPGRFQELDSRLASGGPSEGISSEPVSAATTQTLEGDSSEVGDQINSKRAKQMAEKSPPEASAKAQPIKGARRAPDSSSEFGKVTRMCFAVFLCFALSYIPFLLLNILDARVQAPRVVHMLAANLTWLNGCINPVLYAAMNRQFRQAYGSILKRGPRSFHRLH

Row | Compound | IC50 [1] | IC50 [2]
1 | COCCCCc1ccc2c(c1)CCn1c-2cc(OC[C@@H]2COCCO2)nc1=O [Compound 174, 2-((S)-1-[1,4]Dioxan-2-ylmethoxy)-9-(4-methoxy-butyl)-6,7-dihydro-pyrimido[6,1-a]isoquinolin-4-one] | 0.01 to 100 nM | 0.01 to 100 nM
2 | CCCOCCOc1ccc2c(c1)CCn1c-2cc(OC[C@@H]2COCCO2)nc1=O [Compound 170, 2-((S)-1-[1,4]Dioxan-2-ylmethoxy)-9-(2-propoxy-ethoxy)-6,7-dihydro-pyrimido[6,1-a]isoquinolin-4-one] | 0.01 to 100 nM | 0.01 to 100 nM
3 | O=c1nc(OCC2COCCO2)cc2n1CCc1cc(C#Cc3cccnc3)ccc1-2 (stereo not shown) [Compound 41, 2-([1,4]dioxan-2-ylmethoxy)-9-pyridin-3-ylethynyl-6,7-dihydro-pyrimido[6,1-a]isoquinolin-4-one] | 0.01 to 100 nM | 101 to 500 nM
4 | COc1cccc(-c2ccc3c(c2)CCn2c-3cc(OCC3COCCO3)nc2=O)c1OC (stereo not shown) [Compound 63, 9-(2,3-dimethoxy-phenyl)-2-([1,4]dioxan-2-ylmethoxy)-6,7-dihydro-pyrimido[6,1-a]isoquinolin-4-one] | 0.01 to 100 nM | 101 to 500 nM
5 | O=c1nc(OC[C@@H]2COCCO2)cc2n1CCc1cc(COCC3CCCC3)ccc1-2 [Compound 147, 9-cyclopentylmethoxymethyl-2-((S)-1-[1,4]dioxan-2-ylmethoxy)-6,7-dihydro-pyrimido[6,1-a]isoquinolin-4-one] | 0.01 to 100 nM | 0.01 to 100 nM
6 | CC(C)c1nc(COc2ccc3c(c2)CCn2c-3cc(OCC3COCCO3)nc2=O)no1 (stereo not shown) [Compound 80, 2-([1,4]dioxan-2-ylmethoxy)-9-(5-isopropyl-[1,2,4]oxadiazol-3-ylmethoxy)-6,7-dihydro-pyrimido[6,1-a]isoquinolin-4-one] | 0.01 to 100 nM | 0.01 to 100 nM
7 | O=c1nc(OCC2COCCO2)cc2n1CCc1cc(OCc3noc(C4CC4)n3)ccc1-2 (stereo not shown) [Compound 77, 9-(5-cyclopropyl-[1,2,4]oxadiazol-3-ylmethoxy)-2-([1,4]dioxan-2-ylmethoxy)-6,7-dihydro-pyrimido[6,1-a]isoquinolin-4-one] | 0.01 to 100 nM | 0.01 to 100 nM
8 | O=c1nc(OC[C@@H]2COCCO2)cc2n1CCc1cc(OCC3CCCCO3)ccc1-2 (stereo partly drawn) [Compound 139, 2-((S)-1-[1,4]dioxan-2-ylmethoxy)-9-(tetrahydro-pyran-2-ylmethoxy)-6,7-dihydro-pyrimido[6,1-a]isoquinolin-4-one] | 0.01 to 100 nM | 0.01 to 100 nM
9 | CC(C)Oc1ccc(-c2ccc3c(c2)CCn2c-3cc(OCC3COCCO3)nc2=O)cn1 (stereo not shown) [Compound 60, 2-([1,4]Dioxan-2-ylmethoxy)-9-(6-isopropoxy-pyridin-3-yl)-6,7-dihydro-pyrimido[6,1-a]isoquinolin-4-one] | 0.01 to 100 nM | 0.01 to 100 nM
10 | O=c1nc(OC[C@@H]2COCCO2)cc2n1CCc1cc(OCC3CCOCC3)ccc1-2 [Compound 159, 2-((S)-1-[1,4]dioxan-2-ylmethoxy)-9-(tetrahydro-pyran-4-ylmethoxy)-6,7-dihydro-pyrimido[6,1-a]isoquinolin-4-one] | 0.01 to 100 nM | 0.01 to 100 nM
11 | CC(C)(C)COc1ccc2c(c1)CCn1c-2cc(OC[C@@H]2COCCO2)nc1=O [Compound 158, 9-(2,2-dimethyl-propoxy)-2-((S)-1-[1,4]dioxan-2-ylmethoxy)-6,7-dihydro-pyrimido[6,1-a]isoquinolin-4-one] | 0.01 to 100 nM | 101 to 500 nM
12 | O=c1nc(OCC2COCCO2)cc2n1CCc1cc(-c3ccc(N4CCCCC4)nc3)ccc1-2 (stereo not shown) [Compound 68, 2-([1,4]dioxan-2-ylmethoxy)-9-(3,4,5,6-tetrahydro-2H-[1,2′]bipyridinyl-5′-yl)-6,7-dihydro-pyrimido[6,1-a]isoquinolin-4-one] | 0.01 to 100 nM | 0.01 to 100 nM
13 | CCC(O)C#Cc1ccc2c(c1)CCn1c-2cc(OCC2COCCO2)nc1=O (stereo not shown) [Compound 89, 2-([1,4]dioxan-2-ylmethoxy)-9-(3-hydroxy-pent-1-ynyl)-6,7-dihydro-pyrimido[6,1-a]isoquinolin-4-one] | 0.01 to 100 nM | 101 to 500 nM
14 | CC(C)(C)OCc1ccc2c(c1)CCn1c-2cc(OCC2COCCO2)nc1=O (stereo not shown) [Compound 72, 9-tert-butoxymethyl-2-([1,4]dioxan-2-ylmethoxy)-6,7-dihydro-pyrimido[6,1-a]isoquinolin-4-one] | 0.01 to 100 nM | 0.01 to 100 nM
15 | O=c1nc(OCC2COCCO2)cc2n1CCc1cc(C#CCNc3ccccc3)ccc1-2 (stereo not shown) [Compound 107, 2-([1,4]dioxan-2-ylmethoxy)-9-(3-phenylamino-prop-1-ynyl)-6,7-dihydro-pyrimido[6,1-a]isoquinolin-4-one] | 0.01 to 100 nM | 0.01 to 100 nM
16 | O=c1nc(OC[C@H]2COCCO2)cc2n1CCc1cc(CCC3CC3)ccc1-2 [Compound 114, 9-(2-cyclopropyl-ethyl)-2-((R)-1-[1,4]dioxan-2-ylmethoxy)-6,7-dihydro-pyrimido[6,1-a]isoquinolin-4-one] | 0.01 to 100 nM | 0.01 to 100 nM
17 | CC(C)C#Cc1ccc2c(c1)CCn1c-2cc(OC[C@@H]2COCCO2)nc1=O [Compound 112, 2-((S)-1-[1,4]dioxan-2-ylmethoxy)-9-(3-methyl-but-1-ynyl)-6,7-dihydro-pyrimido[6,1-a]isoquinolin-4-one] | 0.01 to 100 nM | 0.01 to 100 nM
18 | CC(C)(C)C#Cc1ccc2c(c1)CCn1c-2cc(OCC2COCCO2)nc1=O (stereo not shown) [Compound 52, 9-(3,3-Dimethyl-but-1-ynyl)-2-([1,4]dioxan-2-ylmethoxy)-6,7-dihydro-pyrimido[6,1-a]isoquinolin-4-one] | 0.01 to 100 nM | 0.01 to 100 nM
19 | CCCC(O)C#Cc1ccc2c(c1)CCn1c-2cc(OCC2COCCO2)nc1=O (stereo not shown) [Compound 98, 2-([1,4]dioxan-2-ylmethoxy)-9-(3-hydroxy-hex-1-ynyl)-6,7-dihydro-pyrimido[6,1-a]isoquinolin-4-one] | 0.01 to 100 nM | 0.01 to 100 nM
20 | O=c1nc(OCC2COCCO2)cc2n1CCc1cc(CCC(O)c3cccnc3)ccc1-2 (stereo not shown) [Compound 116, 2-([1,4]dioxan-2-ylmethoxy)-9-(3-hydroxy-3-pyridin-3-yl-propyl)-6,7-dihydro-pyrimido[6,1-a]isoquinolin-4-one] | 0.01 to 100 nM | 101 to 500 nM
21 | CC(O)CCCc1ccc2c(c1)CCn1c-2cc(OC[C@@H]2COCCO2)nc1=O (stereo partly drawn) [Compound 150, 2-((S)-1-[1,4]dioxan-2-ylmethoxy)-9-(4-hydroxy-pentyl)-6,7-dihydro-pyrimido[6,1-a]isoquinolin-4-one] | 0.01 to 100 nM | 101 to 500 nM
22 | CNC(=O)c1ccc(-c2ccc3c(c2)CCn2c-3cc(OCC3COCCO3)nc2=O)cc1 (stereo not shown) [Compound 42, 4-[2-([1,4]dioxan-2-ylmethoxy)-4-oxo-6,7-dihydro-4H-pyrimido[6,1-a]isoquinolin-9-yl]-N-methyl-benzamide] | 101 to 500 nM | 101 to 500 nM
23 | O=c1nc(OC[C@H]2COCCO2)cc2n1CCc1cc(CCC3(O)CCCC3)ccc1-2 [Compound 169, 2-((R)-1-[1,4]Dioxan-2-ylmethoxy)-9-[2-(1-hydroxy-cyclopentyl)-ethyl]-6,7-dihydro-pyrimido[6,1-a]isoquinolin-4-one] | 0.01 to 100 nM | 101 to 500 nM
